Measurements published in patent publication US11845770B2, “Ascaroside derivatives and methods of use” (California Institute of Technology, priority 2019, dated 2023).
Entries after “also recorded” stand apart in the source; their conditions may differ.

Key:
[1] = Stability in plasma (human); format: in vitro ADME; details: after 120 minutes, 37° C.
Procedure: The pH of plasma was adjusted to 7.4±0.1 if required. 1 mM intermediate solution was prepared by diluting 10 μL of the 10 mM stock solution of 1 with 90 μL DMSO; 1 mM intermediate of positive control propantheline bromide was prepared by diluting 10 μL of the stock solution with 90 μL ultra-pure water. 100 μM dosing solution was prepared by diluting 10 μL of the 1 mM intermediate solution with 90 μL of 45% MeOH/H2O. 98 μL of blank plasma was spiked with 2 μL of the 100 μM dosing solution to achieve a final concentration of 2 μM of the compound in duplicate. Samples were incubated at 37° C. in a water bath. At each time point (0, 10, 30, 60 and 120 min), 400 μL of stop solution (200 ng/mL tolbutamide plus 200 ng/mL labetalol in 50% ACN/MeOH) was added and was mixed thoroughly to precipitate protein. Sample plates were centrifuged at 4,000 rpm for 10 min. An aliquot of supernatant (100 μL) was transferred from each well and was mixed with 200 μL ultra-pure water. The samples were shaken at 800 rpm for about 10 min before LC/MS/MS analysis.
The remaining percentage of compound 1 (test article) after incubation was calculated according to the following equation.

CYP1A2 = target: T1, CYP1A2 (Homo sapiens, UniProt P05177); assay: 5 in 1 CYP inhibition assay, CYP1A2; format: in vitro ADME; details: microsomes, probe phenacetin (O-deethylation), test compound 10 μM, n=2, read-out: inhibition of cytochrome P450 isoform 1A2
T1 construct: from tissue
T1 sequence (P05177 1-516): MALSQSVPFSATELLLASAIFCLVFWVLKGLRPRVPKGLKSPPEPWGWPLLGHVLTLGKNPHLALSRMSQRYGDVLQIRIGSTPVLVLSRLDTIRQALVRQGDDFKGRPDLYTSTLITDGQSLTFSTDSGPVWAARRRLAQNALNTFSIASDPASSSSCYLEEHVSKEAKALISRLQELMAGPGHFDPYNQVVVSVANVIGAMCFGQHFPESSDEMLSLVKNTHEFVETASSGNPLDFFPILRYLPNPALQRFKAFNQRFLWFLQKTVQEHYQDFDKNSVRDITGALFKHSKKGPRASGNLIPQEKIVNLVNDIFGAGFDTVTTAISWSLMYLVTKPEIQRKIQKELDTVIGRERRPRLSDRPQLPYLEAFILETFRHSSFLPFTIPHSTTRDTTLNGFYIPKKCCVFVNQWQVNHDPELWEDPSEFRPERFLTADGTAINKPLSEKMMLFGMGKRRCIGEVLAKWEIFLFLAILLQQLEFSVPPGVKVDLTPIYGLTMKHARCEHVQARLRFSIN
Procedure: CYP450 dependent activities were determined using a marker substrate cocktail. For each reaction, enzyme activities in the presence and absence of test compound (10 μM) were measured in duplicate. A known inhibitor for each isoform, tested at a single concentration (3 μM, n=2), was included as positive control. Incubation mixtures containing microsomes, substrate, and standard inhibitor or test compound were warmed at 37° C. for 10 minutes. Reactions were initiated by addition of the NADPH and incubated for 10 min. [table] After incubation, ice cold acetonitrile was added to terminate the reaction. Generation of metabolites from the substrate reactions was determined by LC-MS/MS.

[2] = tested on: esophageal eosinophil infiltrate; assay: Eosinophilic esophagitis model, L2-IL5 transgenic mouse sensitized/locally challenged with oxazolone; format: in vivo; details: L2-IL5 mice, OXA, Day 13; for eosinophilia of the esophagus (MBP staining, eosinophils/400× hpf): FIG. 24
Text: From the observation of increased local expression of Interleukin-5 (IL-5) in EoE, transgenic mouse with targeted IL-5 expression to the esophageal squamous epithelia using the Epstein-Barr virus ED-L2 (EBV-ED-L2) gene promoter was generated. […] Even though squamous epithelial-specific IL-5 expression alone induced a significant esophageal eosinophilia encompassing the length of the esophagus, this eosinophilia was not accompanied by the density of histopathological changes such as eosinophilic micro abscesses characteristic of EoE. However, L2-IL5 transgenic mice upon sensitization and subsequent localized topical esophageal challenge with 4-ethoxymethylene-2-phenyl-2-oxazolin-5-one (OXA), a molecule known to induce T-helper cell (Th) type 2 responses, developed key histopathological features, including epithelial hyperplasia and eosinophilic micro abscesses that erupt through the epithelium into the esophageal lumen. Immunohistochemical staining of the eosinophil secondary granule major basic protein (MBP-1) was used to assess the induced esophageal eosinophilia and eosinophil degranulation. […] However, this response was small compared to the induced eosinophilia and associated degranulation that occurred in OXA-treated L2-IL5 transgenic mice (Masterson et al. Gut. 2014, 63, 1-25, which is hereby incorporated by reference in its entirety).
Prior to the OXA sensitization and topical local challenge model of delayed contact hypersensitivity, L2-IL5 transgenic mice were intraperitoneally (IP) injected with compounds or vehicle at 8, 4, and 2 days before sensitization at Day zero (schematic timeline in FIG. 20A). Compounds are prepared by dissolving in dimethyl sulfoxide (DMSO) as master stocks. Fresh working stock compounds in water are prepared for each day of injection and 100 μL of working stock or vehicle is IP injected per mouse. On day zero of the OXA sensitization/local challenge, a 2 cm×2 cm area of abdominal skin of anaesthetized experimental animals was shaved and OXA was applied to the skin surface (150 μl of a 3% (w/v) solution of OXA in 4:1 acetone-olive oil vehicle) to initiate the sensitization phase of the protocol. Sensitized mice then received topical OXA challenges of the esophagus by gavage on protocol Day 5, 8 and 12 after OXA sensitization with 100 μL of a 1% (w/v) solution of OXA in 30% ethanol/olive oil vehicle into the proximal esophagus. In addition, compounds or vehicle were IP injected on Day 5, 8, and 12 after OXA sensitization. All mice were sacrificed, and esophagus collected for histology 24 hours following the last OXA challenge on Day 12 (FIG. 20A). Immunohistochemical staining using a rat monoclonal anti-mouse MBP-1 antibody was conducted to highlight esophageal eosinophil infiltration and localized degranulation. A quantitative assessment of the esophageal eosinophil infiltrate in each group of mice was determined across nine high powered field (hpf) of view, three distal ([…] (Prox)) regions and expressed as group mean data of the eosinophil density (ie, eosinophils/400× hpf) (FIG. 20B). In addition, the eosinophilia is recorded according to the different (epithelial, lamina propia, and muscle) cell layers of the esophagus (FIG. 20C).
of NDM-X in water (20 μL of master stock in […] of water) and 0.231 μg/L of 1 in water (22 μL of master stock in 1078 μL of water) for each injection cohort that are […], respectively. On Day zero of the OXA sensitization/local challenge, a 2 cm×2 cm area of abdominal skin of anaesthetized experimental animals was shaved and OXA was applied to the skin surface to initiate the sensitization phase of the protocol. Sensitized mice then received topical OXA challenges of the esophagus by gavage on protocol Day 5, 8 and 12 after OXA sensitization in the proximal esophagus. […]

[3] = High Dose IP (0.92 mg/kg 1; 0.77 mg/kg NDM-X), FIG. 21
[4] = Low Dose IP (0.014 mg/kg 1; 0.012 mg/kg NDM-X), FIG. 22

Structure (SMILES) | remaining percentage after incubation [1] | inhibition at 10 min, 10 µM (CYP1A2) | eosinophilia of the esophagus, dose dependence ([2]; 0.092 mg/kg Mid Dose and 0.92 mg/kg High Dose IP, FIG. 23) | eosinophilia of the esophagus (MBP-1 staining, eosinophils/400× hpf) ([2]; 0.92 mg/kg High Dose IP, FIG. 23) | eosinophilia of the esophagus (MBP-1 staining, eosinophils/400× hpf) [2, 3] | eosinophilia of the esophagus (MBP-1 staining, eosinophils/400× hpf) [2, 4] | eosinophilia of the esophagus (MBP staining, eosinophils/400× hpf) ([2]; 0.012 mg/kg Low Dose IP, listed as NDM-X) | eosinophilia of the esophagus (MBP staining, eosinophils/400× hpf) ([2]; 0.77 mg/kg High Dose IP)
C[C@H](CC/C=C/C(=O)OC(C)(C)C)O[C@@H]1O[C@@H](C)[C@H](O)C[C@H]1O [Compound 1, tert-butyl (2E,6R)-6-{[(2R,3R,5R,6S)-3,5-dihydroxy-6-methyloxan-2-yl]oxy}hept-2-enoate] | 86.5% | 10.9% | dose-dependently inhibited eosinophilia in the epithelial, lamina propria, and muscle cell layers of the distal, middle, and proximal regions of the esophagus | statistically significant inhibition of the eosinophilic esophagitis observed in epithelial cell layer of distal, middle, and proximal regions of the esophagus; also recorded: statistically significant inhibition of the eosinophilia observed in the lamina propria and muscle cell layers of the middle section of the esophagus; also recorded: statistically significant reduction in eosinophilia observed in all cell layers of the middle and proximal sections as well as the whole esophagus | statistically significant inhibition of eosinophilic esophagitis in the epithelial, lamina propria, and muscle layers of the distal, middle, and proximal cell layers of the esophagus; also recorded: more robust blocking of eosinophil esophagitis in the mouse model than compared to 0.77 mg/kg NDM-X High Dose | statistically significant inhibition of the eosinophilia in all cell layers of the proximal region, epithelial cell layer of the distal region, and lamina propria cell layer of the middle section of the esophagus |  | 
C[C@H](CC/C=C/C(=O)O)O[C@@H]1O[C@@H](C)[C@H](O)C[C@H]1O [ascr #7, reference compound] | 89.8% | 2.3% |  |  | statistically significant reduction in the eosinophilia in the lamina propria and muscle cell layers of the distal, middle, and proximal regions of the esophagus | statistically significant inhibition of the eosinophilia in all cell layers of the proximal region, the muscle cell layers in all regions, and the epithelial cell layer of the distal and proximal regions | slightly better than 0.77 mg/kg High Dose of NDM-X in inhibiting the eosinophilia; also recorded: statistically significant inhibition of the eosinophilia observed in the epithelial, lamina propria, and muscle cell layers of the distal, middle, and proximal regions of the esophagus | statistically significant reduction of the eosinophilia in the epithelial and lamina propria cell layers of distal, middle, and proximal regions of the esophagus
